Test system: diarrhea-predominant IBS subjects
Assay: 3007 Study: open-label 52-week safety study, adverse events and withdrawals

Structure (SMILES): Cc1nccn1C[C@H]1CCc2c(c3cccc4c3n2CCC4)C1=O [cilansetron, (R)-(−)-4,5,6,8,9,10-hexahydro-10-[(2-methyl-1H-imidazol-1-yl)methyl]-11H-pyrido-[3,2,1-jk]-carbazol-11-one]
- TEAE: Sexual Desire Disorders (P/C group): 1 (<1%) n (%)
- TEAE: Sick Sinus Syndrome (P/C group): 1 (<1%) n (%)
- TEAE: Sinus Arrhythmia (P/C group): 1 (<1%) n (%)
- TEAE: Sinus Congestion (P/C group): 3 (1%) n (%)
- TEAE: Skin Disorder NOS (P/C group): 1 (<1%) n (%)
- TEAE: Skin Injuries and Mechanical Dermatoses (P/C group): 2 (<1%) n (%)
- TEAE: Skin Lesion NOS (P/C group): 2 (<1%) n (%)
- TEAE: Skin Neoplasms Benign (P/C group): 1 (<1%) n (%)
- TEAE: Skin Neoplasms Malignant and Unspecified (Excl Melanoma) (P/C group): 4 (1%) n (%)
- TEAE: Skin Ulcer (P/C group): 1 (<1%) n (%)
- TEAE: Skin and Subcutaneous Tissue Disorders (P/C group): 25 (9%) n (%)
- TEAE: Skin and Subcutaneous Tissue Ulcerations (P/C group): 1 (<1%) n (%)
- TEAE: Social Circumstances (P/C group): 1 (<1%) n (%)
- TEAE: Soft Tissue Neoplasms Benign NEC (P/C group): 0 n (%)
- TEAE: Strabismus (P/C group): 1 (<1%) n (%)
- TEAE: Stress Incontinence (P/C group): 0 n (%)
- TEAE: Stress Symptoms (P/C group): 1 (<1%) n (%)
- TEAE: Structural and Other Bile Duct Disorders (P/C group): 1 (<1%) n (%)
- TEAE: Sugar Intolerance (Excl Glucose Intolerance) (P/C group): 1 (<1%) n (%)
- TEAE: Suicidal Ideation (P/C group): 1 (<1%) n (%)
- TEAE: Suicidal and Self-Injurious Behaviour (P/C group): 1 (<1%) n (%)
- TEAE: Supraventricular Arrhythmias (P/C group): 3 (1%) n (%)
- TEAE: Supraventricular Tachycardia (P/C group): 1 (<1%) n (%)
- TEAE: Surgical and Medical Procedures (P/C group): 1 (<1%) n (%)
- TEAE: Sweating Increased (P/C group): 2 (<1%) n (%)
- TEAE: Swelling Face (P/C group): 1 (<1%) n (%)
- TEAE: Tachycardia NOS (P/C group): 0 n (%)
- TEAE: Tenderness NOS (P/C group): 1 (<1%) n (%)
- TEAE: Thrombocytopenia (P/C group): 1 (<1%) n (%)
- TEAE: Thrombocytopenias (P/C group): 1 (<1%) n (%)
- TEAE: Thrombophlebitis Superficial (P/C group): 1 (<1%) n (%)
- TEAE: Thyroid Disorders NEC (P/C group): 0 n (%)
- TEAE: Thyroid Hypofunction Disorders (P/C group): 1 (<1%) n (%)
- TEAE: Thyroid Neoplasms (P/C group): 1 (<1%) n (%)
- TEAE: Thyroid Nodule (P/C group): 1 (<1%) n (%)
- TEAE: Tinnitus (P/C group): 0 n (%)
- TEAE: Total Fluid Volume Decreased (P/C group): 1 (<1%) n (%)
- TEAE: Tympanic Membrane Disorder NOS (P/C group): 1 (<1%) n (%)
- TEAE: Tympanic Membrane Disorders (Excl Infections) (P/C group): 1 (<1%) n (%)
- TEAE: Upper Respiratory Tract Signs and Symptoms (P/C group): 4 (1%) n (%)
- TEAE: Urinary Abnormalities (P/C group): 1 (<1%) n (%)
- TEAE: Urinary Frequency (P/C group): 1 (<1%) n (%)
- TEAE: Urinary Incontinence (P/C group): 0 n (%)
- TEAE: Urinary Retention (P/C group): 0 n (%)
- TEAE: Urinary Tract Lithiasis (Excl Renal) (P/C group): 0 n (%)
- TEAE: Urinary Tract Signs and Symptoms NEC (P/C group): 1 (<1%) n (%)
- TEAE: Urine Abnormal NOS (P/C group): 0 n (%)
- TEAE: Urticaria NOS (P/C group): 2 (<1%) n (%)
- TEAE: Urticarias (P/C group): 2 (<1%) n (%)
- TEAE: Uterine Disorders NEC* (P/C group): 0 n (%)
- TEAE: Uterine Fibroids* (P/C group): 0 n (%)
- TEAE: Uterine Neoplasms Benign* (P/C group): 0 n (%)
- TEAE: Uterine Neoplasms* (P/C group): 0 n (%)
- TEAE: Uterine Polyp NOS* (P/C group): 0 n (%)
- TEAE: Vaginal Cyst* (P/C group): 0 n (%)
- TEAE: Vaginal Lesion* (P/C group): 0 n (%)
- TEAE: Varicose Vein Ruptured (P/C group): 0 n (%)
- TEAE: Varicose Veins Non-Site Specific (P/C group): 0 n (%)
- TEAE: Vascular Disorders (P/C group): 8 (3%) n (%)
- TEAE: Vascular Hypertensive Disorders NEC (P/C group): 7 (3%) n (%)
- TEAE: Vascular Hypotensive Disorders (P/C group): 1 (<1%) n (%)
- TEAE: Ventricular Arrhythmias and Cardiac Arrest (P/C group): 1 (<1%) n (%)
- TEAE: Ventricular Extrasystoles (P/C group): 0 n (%)
- TEAE: Vertigo (P/C group): 1 (<1%) n (%)
- TEAE: Visual Acuity Reduced (P/C group): 1 (<1%) n (%)
- TEAE: Vitreous Disorder NOS (P/C group): 1 (<1%) n (%)
- TEAE: Vulvovaginal Cysts and Neoplasms* (P/C group): 0 n (%)
- TEAE: Vulvovaginal Dryness* (P/C group): 2 (1%) n (%)
- TEAE: Vulvovaginal Signs and Symptoms* (P/C group): 2 (1%) n (%)
- TEAE: Wheezing (P/C group): 0 n (%)
- TEAE: Abdominal Discomfort (Placebo/Cilansetron 2 mg): 0 n (%)
- TEAE: Abdominal Distension (Placebo/Cilansetron 2 mg): 6 (2%) n (%)
- TEAE: Abdominal Pain Aggravated (Placebo/Cilansetron 2 mg): 0 n (%)
- TEAE: Abdominal Pain Lower (Placebo/Cilansetron 2 mg): 6 (2%) n (%)
- TEAE: Abdominal Pain NOS (Placebo/Cilansetron 2 mg): 21 (8%) n (%)
- TEAE: Abdominal Pain Upper (Placebo/Cilansetron 2 mg): 4 (1%) n (%)
- TEAE: Abdominal Rebound Tenderness (Placebo/Cilansetron 2 mg): 0 n (%)
- TEAE: Abdominal Tenderness (Placebo/Cilansetron 2 mg): 4 (1%) n (%)
- TEAE: Abnormal Reflexes (Placebo/Cilansetron 2 mg): 0 n (%)
- TEAE: Alanine Aminotransferase Increased (Placebo/Cilansetron 2 mg): 6 (2%) n (%)
- TEAE: Anal and Rectal Disorders NEC (Placebo/Cilansetron 2 mg): 1 (<1%) n (%)
- TEAE: Anal and Rectal Pains (Placebo/Cilansetron 2 mg): 4 (1%) n (%)
- TEAE: Anal and Rectal Signs and Symptoms (Placebo/Cilansetron 2 mg): 3 (1%) n (%)
- TEAE: Animal Bite (Placebo/Cilansetron 2 mg): 1 (<1%) n (%)
- TEAE: Appendicitis (Placebo/Cilansetron 2 mg): 0 n (%)
- TEAE: Arthralgia (Placebo/Cilansetron 2 mg): 3 (1%) n (%)
- TEAE: Arthritis NOS (Placebo/Cilansetron 2 mg): 0 n (%)
- TEAE: Arthritis NOS Aggravated (Placebo/Cilansetron 2 mg): 0 n (%)
- TEAE: Arthropathies NEC (Placebo/Cilansetron 2 mg): 1 (<1%) n (%)
- TEAE: Arthropod Bite (Placebo/Cilansetron 2 mg): 1 (<1%) n (%)
- TEAE: Arthropod Sting (Placebo/Cilansetron 2 mg): 1 (<1%) n (%)
- TEAE: Aspartate Aminotransferase Increased (Placebo/Cilansetron 2 mg): 3 (1%) n (%)
- TEAE: Back Injury NOS (Placebo/Cilansetron 2 mg): 0 n (%)
- TEAE: Back Pain (Placebo/Cilansetron 2 mg): 6 (2%) n (%)
- TEAE: Back Pain Aggravated (Placebo/Cilansetron 2 mg): 1 (<1%) n (%)
- TEAE: Bacteria Identification and Serology (Excl Mycobacteria) (Placebo/Cilansetron 2 mg): 0 n (%)
- TEAE: Bilirubin Urine (Placebo/Cilansetron 2 mg): 0 n (%)
- TEAE: Bladder Infection NOS (Placebo/Cilansetron 2 mg): 1 (<1%) n (%)
- TEAE: Blood Alkaline Phosphatase NOS Increased (Placebo/Cilansetron 2 mg): 1 (<1%) n (%)
- TEAE: Blood Bilirubin Increased (Placebo/Cilansetron 2 mg): 2 (<1%) n (%)
- TEAE: Blood Cholesterol Increased (Placebo/Cilansetron 2 mg): 8 (3%) n (%)
- TEAE: Blood Creatine Phosphokinase Increased (Placebo/Cilansetron 2 mg): 8 (3%) n (%)
- TEAE: Blood Creatine Phosphokinase Mb Increased (Placebo/Cilansetron 2 mg): 0 n (%)
- TEAE: Blood Creatinine Increased (Placebo/Cilansetron 2 mg): 3 (1%) n (%)
- TEAE: Blood Glucose Increased (Placebo/Cilansetron 2 mg): 0 n (%)
- TEAE: Blood Potassium Increased (Placebo/Cilansetron 2 mg): 0 n (%)
- TEAE: Blood Pressure Increased (Placebo/Cilansetron 2 mg): 2 (<1%) n (%)
- TEAE: Blood Sodium Increased (Placebo/Cilansetron 2 mg): 0 n (%)
- TEAE: Blood Triglycerides Increased (Placebo/Cilansetron 2 mg): 4 (1%) n (%)
- TEAE: Blood Uric Acid Increased (Placebo/Cilansetron 2 mg): 0 n (%)
- TEAE: Blood Urine Present (Placebo/Cilansetron 2 mg): 4 (1%) n (%)
- TEAE: Blood in Stool (Placebo/Cilansetron 2 mg): 4 (1%) n (%)
- TEAE: Bone Density Decreased (Placebo/Cilansetron 2 mg): 1 (<1%) n (%)
- TEAE: Bone Disorder NOS (Placebo/Cilansetron 2 mg): 0 n (%)
- TEAE: Bone Disorders NEC (Placebo/Cilansetron 2 mg): 2 (<1%) n (%)
- TEAE: Bone Injury (Placebo/Cilansetron 2 mg): 0 n (%)
- TEAE: Bone Spur (Placebo/Cilansetron 2 mg): 1 (<1%) n (%)
- TEAE: Bronchitis Acute NOS (Placebo/Cilansetron 2 mg): 1 (<1%) n (%)
- TEAE: Bronchitis NOS (Placebo/Cilansetron 2 mg): 5 (2%) n (%)
- TEAE: Bronchopneumonia NOS (Placebo/Cilansetron 2 mg): 1 (<1%) n (%)
- TEAE: Bunion (Placebo/Cilansetron 2 mg): 0 n (%)
- TEAE: Bursal Disorders (Placebo/Cilansetron 2 mg): 3 (1%) n (%)
- TEAE: Bursitis (Placebo/Cilansetron 2 mg): 2 (<1%) n (%)
- TEAE: Candida Infections (Placebo/Cilansetron 2 mg): 2 (<1%) n (%)
- TEAE: Candidal Infection NOS (Placebo/Cilansetron 2 mg): 1 (<1%) n (%)
- TEAE: Carbohydrate Tolerance Analyses (Incl Diabetes) (Placebo/Cilansetron 2 mg): 0 n (%)
- TEAE: Cardiac Auscultatory Investigations (Placebo/Cilansetron 2 mg): 0 n (%)
- TEAE: Cardiac Murmur NOS (Placebo/Cilansetron 2 mg): 0 n (%)
- TEAE: Carotid Bruit (Placebo/Cilansetron 2 mg): 1 (<1%) n (%)
- TEAE: Carpal Tunnel Syndrome (Placebo/Cilansetron 2 mg): 1 (<1%) n (%)
- TEAE: Cartilage Disorder NOS (Placebo/Cilansetron 2 mg): 0 n (%)
- TEAE: Cartilage Disorders (Placebo/Cilansetron 2 mg): 0 n (%)
- TEAE: Cellulitis (Placebo/Cilansetron 2 mg): 1 (<1%) n (%)
- TEAE: Cervical Spasm (Placebo/Cilansetron 2 mg): 0 n (%)
- TEAE: Change in Bowel Habit NOS (Placebo/Cilansetron 2 mg): 1 (<1%) n (%)
- TEAE: Chapped Lips (Placebo/Cilansetron 2 mg): 1 (<1%) n (%)
- TEAE: Chest Wall Pain (Placebo/Cilansetron 2 mg): 2 (<1%) n (%)
- TEAE: Cholesterol Analyses (Placebo/Cilansetron 2 mg): 8 (3%) n (%)
- TEAE: Colitis (Excl Infective) (Placebo/Cilansetron 2 mg): 1 (<1%) n (%)
- TEAE: Colitis Ischaemic (Placebo/Cilansetron 2 mg): 1 (<1%) n (%)
- TEAE: Colonic Polyp (Placebo/Cilansetron 2 mg): 0 n (%)
- TEAE: Connective Tissue Disorders (Excl Le) (Placebo/Cilansetron 2 mg): 2 (<1%) n (%)
- TEAE: Constipation (Placebo/Cilansetron 2 mg): 62 (22%) n (%)
- TEAE: Cystitis NOS (Placebo/Cilansetron 2 mg): 0 n (%)
- TEAE: Dental Disorders NEC (Placebo/Cilansetron 2 mg): 0 n (%)
- TEAE: Dental Infections - Pathogen Class Unspecified (Placebo/Cilansetron 2 mg): 2 (<1%) n (%)
- TEAE: Dental Pain and Sensation Disorders (Placebo/Cilansetron 2 mg): 1 (<1%) n (%)
- TEAE: Diaphragmatic Hernias (Placebo/Cilansetron 2 mg): 0 n (%)
- TEAE: Diarrhoea (Excl Infective) (Placebo/Cilansetron 2 mg): 15 (5%) n (%)
- TEAE: Diarrhoea Aggravated (Placebo/Cilansetron 2 mg): 2 (<1%) n (%)
- TEAE: Diarrhoea Haemorrhagic (Placebo/Cilansetron 2 mg): 2 (<1%) n (%)
- TEAE: Diarrhoea NOS (Placebo/Cilansetron 2 mg): 9 (3%) n (%)
- TEAE: Disturbances in Consciousness NEC (Placebo/Cilansetron 2 mg): 1 (<1%) n (%)
- TEAE: Diverticulitis NOS (Placebo/Cilansetron 2 mg): 1 (<1%) n (%)
- TEAE: Diverticulum Inflammations (Placebo/Cilansetron 2 mg): 1 (<1%) n (%)
- TEAE: Dizziness (Placebo/Cilansetron 2 mg): 2 (<1%) n (%)
- TEAE: Dry Mouth (Placebo/Cilansetron 2 mg): 1 (<1%) n (%)
- TEAE: Dysarthria (Placebo/Cilansetron 2 mg): 1 (<1%) n (%)
- TEAE: Dyskinesias and Movement Disorders NEC (Placebo/Cilansetron 2 mg): 1 (<1%) n (%)
- TEAE: Dyspepsia (Placebo/Cilansetron 2 mg): 7 (3%) n (%)
- TEAE: Dyspepsia Aggravated (Placebo/Cilansetron 2 mg): 0 n (%)
- TEAE: Dyspeptic Signs and Symptoms (Placebo/Cilansetron 2 mg): 7 (3%) n (%)
- TEAE: ECG Investigations (Placebo/Cilansetron 2 mg): 1 (<1%) n (%)
- TEAE: Ear Infection NOS (Placebo/Cilansetron 2 mg): 2 (<1%) n (%)
- TEAE: Ear Infections (Placebo/Cilansetron 2 mg): 3 (1%) n (%)
- TEAE: Electrocardiogram Qrs Complex Abnormal (Placebo/Cilansetron 2 mg): 0 n (%)
- TEAE: Electrocardiogram T Wave Inversion (Placebo/Cilansetron 2 mg): 1 (<1%) n (%)
- TEAE: Enteritis (Placebo/Cilansetron 2 mg): 1 (<1%) n (%)
- TEAE: Epigastric Discomfort (Placebo/Cilansetron 2 mg): 1 (<1%) n (%)

From patent US20070093520A1, “Method of treatment of diarrhea-predominant irritable bowel syndrome in a subject” (priority 2005, published 2007)
